Experimental data as given in PubChem BioAssay AID256 (DTP/NCI, 2004).
“And” between values parts separate entries of the source, which are not always exact repeats. Identical values can stand only once. Toxic doses and inconclusive results are not listed. Rule for the calls: active = survival T/C of 150% or more; inactive = T/C below 125% in these data.

Test system: CD2F1 mice, L1210 leukemia ip, survival T/C
Test: NCI In Vivo Anticancer Drug Screen. Data for tumor model L1210 Leukemia (intraperitoneal) in CD2F1 (CDF1) mice
Settings: endpoint: mean survival time, higher = longer survival
In short: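 Each value reflects a quotient of treated over vehicle control outcomes in mice with a transplanted tumor.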

[1] = dose: 100.0 mg/kg/injection, schedule: Q01DX001 (ip), vehicle: saline with Tween-80
[2] = dose: 100.0 mg/kg/injection, schedule: Q04DX003 (ip), vehicle: saline with Tween-80
[3] = dose: 200.0 mg/kg/injection, schedule: Q04DX003 (ip), vehicle: saline with Tween-80
[4] = dose: 400.0 mg/kg/injection, schedule: Q04DX003 (ip), vehicle: saline with Tween-80

Measured: T/C

COc1cc(C(=O)c2c(OC)cccc2C(=O)O)c(OC)cc1C
inactive: dose: 12.5 mg/kg/injection, schedule: Q01DX009 (ip), vehicle: water 100 % of control | dose: 25.0 mg/kg/injection, schedule: Q01DX009 (ip), vehicle: water 100 % of control | dose: 50.0 mg/kg/injection, schedule: Q01DX009 (ip), vehicle: water 95 % of control | dose: 100.0 mg/kg/injection, schedule: Q01DX009 (ip), vehicle: water 95 % of control | dose: 200.0 mg/kg/injection, schedule: Q01DX009 (ip), vehicle: water 97 % of control

CCC[As](=O)(O)CC[As](=O)(O)CCC
inactive: dose: 25.0 mg/kg/injection, schedule: Q01DX001 (ip), vehicle: saline with Tween-80 95 % of control | dose: 50.0 mg/kg/injection, schedule: Q01DX001 (ip), vehicle: saline with Tween-80 95 % of control | [1] 103 % of control

COc1cc(C2c3cc4c(cc3CC3COC(=O)C32)OCO4)cc(OC)c1O (stereo unspecified)
inactive: dose: 0.5 mg/kg/injection, schedule: Q01DX009 (ip), vehicle: saline with Tween-80 91 % of control | dose: 1.0 mg/kg/injection, schedule: Q01DX009 (ip), vehicle: saline with Tween-80 100 % of control | dose: 2.0 mg/kg/injection, schedule: Q01DX009 (ip), vehicle: saline with Tween-80 112 % of control | dose: 4.0 mg/kg/injection, schedule: Q01DX009 (ip), vehicle: saline with Tween-80 100 % of control

NC(N)=NCc1ccccc1
inactive: dose: 10.0 mg/kg/injection, schedule: Q04DX003 (ip), vehicle: saline 106 % of control | dose: 12.5 mg/kg/injection, schedule: Q04DX003 (ip), vehicle: saline 100 % of control | dose: 20.0 mg/kg/injection, schedule: Q04DX003 (ip), vehicle: saline 103 % of control | dose: 25.0 mg/kg/injection, schedule: Q04DX003 (ip), vehicle: saline 96 % of control | dose: 40.0 mg/kg/injection, schedule: Q04DX003 (ip), vehicle: saline 100 % of control | dose: 50.0 mg/kg/injection, schedule: Q04DX003 (ip), vehicle: saline 97 % of control and 100 % of control

CC(C)CCCCCOC(=O)Nc1cccc2ccccc12
inactive: [1] 92 % of control | dose: 200.0 mg/kg/injection, schedule: Q01DX001 (ip), vehicle: saline with Tween-80 89 % of control | dose: 400.0 mg/kg/injection, schedule: Q01DX001 (ip), vehicle: saline with Tween-80 92 % of control

O=S(=O)([O-])O.O=S(O)S(=O)O.[Co+3].[NH2-].[NH2-].[NH2-].[NH2-].[NH2-]
inactive: dose: 100.0 mg/kg/injection, schedule: Q04DX002 (ip), vehicle: saline with Tween-80 97 % of control

COC(=O)c1cc2ccccc2o1
inactive: dose: 100.0 mg/kg/injection, schedule: Q01DX009 (ip), vehicle: saline with Tween-80 100 % of control | [2] 108 % of control | dose: 200.0 mg/kg/injection, schedule: Q01DX009 (ip), vehicle: saline with Tween-80 100 % of control | [3] 108 % of control | dose: 400.0 mg/kg/injection, schedule: Q01DX009 (ip), vehicle: saline with Tween-80 105 % of control | [4] 94 % of control

Cc1ccc(C(=O)c2nnc(C(=O)c3ccc(C)cc3)nn2)cc1
inactive: [2] 92 % of control | [3] 92 % of control | [4] 86 % of control
